Values after ≈ are worked out from the molar mass of the structure shown. Active and inactive are the calls of the source. No cut-off for these calls is given here.

Data set [1] concerns Staphylococcus aureus. Nature of the data set: Antibacterial activity against methicillin resistant Staphylococcus aureus ATCC 43300 infected in ICR mouse systemic infection model assessed as reduction in bacterial burden in kidney at 2.5 mg/kg, ip pretreated with bacteria for 30 mins followed by compound addition and measured for 7 days. Conditions: time 7.0 day. Type of data set: functional, organism-based.

Data set [2] relates to Staphylococcus aureus. Nature of the data set: Antibacterial activity against methicillin resistant Staphylococcus aureus ATCC 43300 infected in ICR mouse systemic infection model assessed as reduction in bacterial burden in lung at 2.5 mg/kg, ip pretreated with bacteria for 30 mins followed by compound addition and measured for 7 days. The class given is functional, organism-based. Conditions: time 7.0 day.

Data set [3] can be described thus: Bioavailability in ICR mouse at 5 mg/kg, po. Type of data set: ADME, organism-based. Conditions: in vivo.
Data set [4] has as its system Staphylococcus aureus. As to the kind of experiment: Potency index, ratio of griseofamine A MIC to test compound MIC for antibacterial activity against methicillin resistant Staphylococcus aureus ATCC 43300. The class given is functional.
The subject of data set [5] is Staphylococcus aureus. As to the kind of experiment: Antibacterial activity against Staphylococcus aureus ATCC 29213 incubated for 18 hrs by serial two-fold dilution method. The class given is functional.
For data set [6], the system named is Staphylococcus aureus. As to the kind of experiment: Bactericidal activity against Staphylococcus aureus ATCC 29213 incubated for 18 to 24 hrs. Type of data set: functional. Conditions: time 18-24 hrs.
In data set [7] the test system is Staphylococcus epidermidis. As to the kind of experiment: Bactericidal activity against Staphylococcus epidermidis ATCC 12228 incubated for 18 to 24 hrs. The class given is functional. Conditions: time 18-24 hrs.
The test system of data set [8] is Staphylococcus aureus. Nature of the data set: Antibacterial activity against methicillin resistant Staphylococcus aureus ATCC 43300 infected in ICR mouse systemic infection model assessed as reduction in bacterial burden in liver at 2.5 mg/kg, ip pretreated with bacteria for 30 mins followed by compound addition and measured for 7 days. The class given is functional, organism-based. Conditions: time 7.0 day.

The nature of data set [9]: Acute toxicity in ICR mouse at 2 g/kg, po measured after 7 days. Conditions: in vivo, 2000 mg/kg, time 7 day. The class given is organism-based.
A short description of data set [10]: Volume of distribution in ICR mouse at 1 mg/kg, iv. Conditions: in vivo. The class given is ADME, organism-based.
The subject of data set [11] is Staphylococcus aureus. Nature of the data set: Potency index, ratio of vancomycin MIC to test compound MIC for antibacterial activity against methicillin resistant Staphylococcus aureus ATCC 43300. The class given is functional.
The subject of data set [12] is Staphylococcus aureus. As to the kind of experiment: Antibacterial activity against methicillin resistant Staphylococcus aureus ATCC 43300 infected in ip dosed ICR mouse systemic infection model pretreated with bacteria for 30 mins followed by compound addition and measured for 7 days. Conditions: dose 1.25-5 mg/kg, time 7.0 day. Type of data set: functional, organism-based.

Data set [13] relates to Staphylococcus aureus. As to the kind of experiment: Drug resistance development in methicillin resistant Staphylococcus aureus ATCC 43300 assessed as increase in MIC value measured after 8 passages by broth microdilution method. Type of data set: functional.
Data set [14] in a line: Clearance in ICR mouse at 1 mg/kg, iv. The class given is ADME, organism-based. Conditions: in vivo.
In data set [15] the test system is Staphylococcus aureus. Nature of the data set: Antibacterial activity against methicillin resistant Staphylococcus aureus ATCC 33592 incubated for 18 hrs by serial two-fold dilution method. The class given is functional.
Data set [16] in a line: Acute toxicity in ICR mouse assessed as change in water intake at 2 g/kg, po measured after 7 days. The class given is organism-based. Conditions: in vivo, 2000 mg/kg, 168 h, time 7 day.
Data set [17] in a line: MRT(0 to t) in ICR mouse at 1 mg/kg, iv. Conditions: in vivo. Type of data set: ADME, organism-based.
The nature of data set [18]: Tmax in ICR mouse at 5 mg/kg, po. Type of data set: ADME, organism-based. Conditions: in vivo.
Data set [19] concerns Staphylococcus aureus. Nature of the data set: Drug resistance development in methicillin resistant Staphylococcus aureus […] assessed as increase in MIC value measured after 7 passages by broth microdilution method. Type of data set: functional, organism-based.

Take `C/C(O)=C1\C(=O)[C@@H]2Cc3c([nH]c4ccccc34)[C@@H](c3ccc(-c4cc(F)cc(F)c4)cc3)N2C1=O`: the result with Staphylococcus aureus [1], in the data set with Staphylococcus aureus [2] and in the data set with Staphylococcus aureus [8] was Active. The same compound registered a bioavailability in data set [3] of 11.6%. The Ratio in the data set with Staphylococcus aureus [4] stood at 128; in the data set on Staphylococcus aureus [11], 8. The figures for the MIC with Staphylococcus aureus [5], in the data set on Staphylococcus aureus [13] and against Staphylococcus aureus [15] were 0.031 µg/mL (≈ 0.0659 µM), 2 µg/mL and 0.063 µg/mL (≈ 0.134 µM), respectively. The figures for the MBC (in the data set with Staphylococcus aureus [6]; in [7]) were 1 µg/mL (≈ 2.13 µM) and 0.25 µg/mL (≈ 0.531 µM), respectively. Also, the LD50 at 168 h in [9] is greater than 2000 mg/kg. This compound also returned a Vd in data set [10] of 2.55 L/kg. Besides, the values for the Activity entry (in the data set with Staphylococcus aureus [12]; in data set [16]) were “Dose-Dependent Effect” and “Non-Toxic”, respectively. The compound further showed a clearance in data set [14] of 3.88 mL/min/kg. This compound returned an MRT last in data set [17] of 10.4 h. For the same compound, in data set [18], the time to peak (Tmax) was 3.33 h. Further, the result in the data set with Staphylococcus aureus [19] was inactive.

Values taken from ChEMBL document CHEMBL5608208, “Design, synthesis of griseofamine A derivatives and development of potent antibacterial agents against MRSA” (Eur J Med Chem, 2024).
